Laboratory results reported in patent US20230278972A1, “SUBSTITUTED HALOALKYL SULFONANILIDE HERBICIDES” (FMC Corporation, priority 2020, published 2023).

Columns and labels:
Format in all cases: in vivo
kochia (Bassia scoparia) [1] = experiment: Test A preemergence, kochia; conditions: Preemergence; for Plant response rating, Kochia: 125 g ai/ha, visual injury, 0 to 100 scale (0 no effect, 100 complete control), approx. 10 days; for Kochia plant response rating: 500 g ai/ha, visual injury on 0 to 100 scale (0 no effect, 100 complete control), approximately 10 days
Procedure, shortened: (§1)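 Pots: loam soil/sand blend. Pre: directed soil spray at planting. Post: plants 2–10 cm, 1–2 leaf stage. Formulation: non-phytotoxic solvent + surfactant.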

kochia (Bassia scoparia) [2] = experiment: Test A postemergence, kochia; conditions: Postemergence, 0 to 100 scale (0 no effect, 100 complete control)
Procedure, shortened: as §1

[3] = test system: Ryegrass, Italian (Italian ryegrass, Lolium multiflorum); experiment: Test A postemergence, Ryegrass, Italian; conditions: Postemergence, 0 to 100 scale (0 no effect, 100 complete control)
Procedure, shortened: as §1

[4] = test system: Foxtail, Giant (giant foxtail, Setaria faberi); experiment: Test A postemergence, Foxtail, Giant; conditions: Postemergence, 0 to 100 scale (0 no effect, 100 complete control)
Procedure, shortened: as §1

[5] = test system: barnyardgrass (Echinochloa crus-galli); experiment: Test A postemergence, barnyardgrass; conditions: Postemergence, 0 to 100 scale (0 no effect, 100 complete control)
Procedure, shortened: (§2)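 Postemergence ratings come from foliar sprays onto one- to two-leaf plants of 2 to 10 cm grown in loam/sand; preemergence ratings come from a directed spray onto the soil of newly seeded pots. Formulation was a surfactant-containing non-phytotoxic solvent blend.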

[6] = test system: barnyardgrass (Echinochloa crus-galli); experiment: Test A preemergence, barnyardgrass; conditions: Preemergence; for Plant response rating, Barnyardgrass: 125 g ai/ha, visual injury, 0 to 100 scale (0 no effect, 100 complete control), approx. 10 days; for Barnyardgrass plant response rating: 500 g ai/ha, visual injury on 0 to 100 scale (0 no effect, 100 complete control), approximately 10 days
Procedure, shortened: as §1

[7] = test system: blackgrass (Alopecurus myosuroides); experiment: Test A postemergence, blackgrass; conditions: Postemergence, 0 to 100 scale (0 no effect, 100 complete control)
Procedure, shortened: as §1

[8] = test system: Foxtail, Giant (giant foxtail, Setaria faberi); experiment: Test A preemergence, Foxtail, Giant; conditions: Preemergence; for Plant response rating, Foxtail, Giant: 125 g ai/ha, visual injury, 0 to 100 scale (0 no effect, 100 complete control), approx. 10 days; for Foxtail, Giant plant response rating: 500 g ai/ha, visual injury on 0 to 100 scale (0 no effect, 100 complete control), approximately 10 days
Procedure, shortened: as §1

corn (Zea mays) = experiment: Test A postemergence, corn; conditions: Postemergence, 0 to 100 scale (0 no effect, 100 complete control)
Procedure, shortened: as §1

[9] = test system: galium (catchweed bedstraw, Galium aparine); experiment: Test A postemergence, galium; conditions: Postemergence, 0 to 100 scale (0 no effect, 100 complete control)
Procedure, shortened: as §2

[10] = test system: Ryegrass, Italian (Italian ryegrass, Lolium multiflorum); experiment: Test A preemergence, Ryegrass, Italian; conditions: Preemergence; for Plant response rating, Ryegrass, Italian: 125 g ai/ha, visual injury, 0 to 100 scale (0 no effect, 100 complete control), approx. 10 days; for Ryegrass, Italian plant response rating: 500 g ai/ha, visual injury on 0 to 100 scale (0 no effect, 100 complete control), approximately 10 days
Procedure, shortened: as §1

[11] = test system: pigweed (Amaranthus retroflexus); experiment: Test A postemergence, pigweed; conditions: Postemergence, 0 to 100 scale (0 no effect, 100 complete control)
Procedure, shortened: as §1

[12] = test system: wheat (Triticum aestivum); experiment: Test A postemergence, wheat; conditions: Postemergence, 0 to 100 scale (0 no effect, 100 complete control)
Procedure, shortened: as §2

[13] = test system: ragweed (common ragweed, Ambrosia artemisiifolia); experiment: Test A preemergence, ragweed; conditions: Preemergence; for Plant response rating, Ragweed: 125 g ai/ha, visual injury, 0 to 100 scale (0 no effect, 100 complete control), approx. 10 days; for Ragweed plant response rating: 500 g ai/ha, visual injury on 0 to 100 scale (0 no effect, 100 complete control), approximately 10 days
Procedure, shortened: as §1

[14] = test system: ragweed (common ragweed, Ambrosia artemisiifolia); experiment: Test A postemergence, ragweed; conditions: Postemergence, 0 to 100 scale (0 no effect, 100 complete control)
Procedure, shortened: as §1

[15] = test system: pigweed (Amaranthus retroflexus); experiment: Test A preemergence, pigweed; conditions: for Plant response rating, Pigweed: 125 g ai/ha, visual injury, 0 to 100 scale (0 no effect, 100 complete control), approx. 10 days; for Pigweed plant response rating: 500 g ai/ha, visual injury on 0 to 100 scale (0 no effect, 100 complete control), approximately 10 days
Procedure, shortened: as §2

[16] = 500 g ai/ha, visual injury approx. 10 days

| Compound | Plant response rating, Kochia (kochia (Bassia scoparia) [1]) | Kochia plant response rating (kochia (Bassia scoparia) [1]) | Plant response rating, Kochia (kochia (Bassia scoparia) [2]; 125 g ai/ha) | Plant response rating, Kochia (kochia (Bassia scoparia) [2]; [16]) | Plant response rating, Ryegrass, Italian ([3]; 125 g ai/ha) | Plant response rating, Ryegrass, Italian [3, 16] | Plant response rating, Foxtail, Giant ([4]; 125 g ai/ha) | Plant response rating, Foxtail, Giant [4, 16] | Plant response rating, Barnyardgrass ([5]; 125 g ai/ha) | Plant response rating, Barnyardgrass [5, 16] | Plant response rating, Barnyardgrass [6] | Barnyardgrass plant response rating [6] | Plant response rating, Blackgrass ([7]; 125 g ai/ha) | Plant response rating, Blackgrass [7, 16] | Plant response rating, Foxtail, Giant [8] | Foxtail, Giant plant response rating [8] | Plant response rating, Corn (corn (Zea mays); 125 g ai/ha) | Plant response rating, Corn (corn (Zea mays); [16]) | Plant response rating, Galium ([9]; 125 g ai/ha) | Plant response rating, Galium [9, 16] | other results |
| --- | --- | --- | --- | --- | --- | --- | --- | --- | --- | --- | --- | --- | --- | --- | --- | --- | --- | --- | --- | --- | --- |
| Cc1cc(C)c(C2=NOC3(CCCCCC3)C2)cc1NS(=O)(=O)C(F)(F)F [Compound 277] | 90 | 100 | 10 | 40 | 0 | 60 | 30 | 90 | 20 | 90 | 100 | 100 | 10 | 60 | 100 | 100 | 10 | 70 | 100 | 100 | Plant response rating, Ryegrass, Italian [10]: 100; Ryegrass, Italian plant response rating [10]: 100; Plant response rating, Pigweed ([11]; 125 g ai/ha): 30; Plant response rating, Pigweed [11, 16]: 70; Plant response rating, Wheat ([12]; 125 g ai/ha): 0; Plant response rating, Wheat [12, 16]: 70; Plant response rating, Ragweed [13]: 10; Ragweed plant response rating [13]: 80; Plant response rating, Ragweed ([14]; 125 g ai/ha): 20; Plant response rating, Ragweed [14, 16]: 60; Plant response rating, Pigweed [15]: 60; Pigweed plant response rating [15]: 100 |
| Cc1cc(C)c(N2CC3(CCCCC3)OC2=O)cc1NS(=O)(=O)C(F)(F)F [Compound 279] | 80 | 90 | 40 | 50 | 0 | 60 | 10 | 30 | 20 | 80 | 100 | 100 | 0 | 20 | 100 | 100 | 20 | 20 | 90 | 90 | Plant response rating, Ryegrass, Italian [10]: 90; Ryegrass, Italian plant response rating [10]: 100; Plant response rating, Pigweed ([11]; 125 g ai/ha): 50; Plant response rating, Pigweed [11, 16]: 80; Plant response rating, Wheat ([12]; 125 g ai/ha): 0; Plant response rating, Wheat [12, 16]: 70; Plant response rating, Ragweed [13]: 100; Ragweed plant response rating [13]: 100; Plant response rating, Ragweed ([14]; 125 g ai/ha): 80; Plant response rating, Ragweed [14, 16]: 90; Plant response rating, Pigweed [15]: 90; Pigweed plant response rating [15]: 100 |
| Cc1cc(C)c(N(S(=O)(=O)C(F)(F)F)S(=O)(=O)C(F)(F)F)cc1N1CCC2(CCCC2)C1=O [Compound 280] | 40 | 70 | 20 | 50 | 40 | 70 | 0 | 20 | 20 | 90 | 90 | 90 | 0 | 0 | 100 | 100 | 0 | 10 | 80 | 90 | Plant response rating, Ryegrass, Italian [10]: 100; Ryegrass, Italian plant response rating [10]: 100; Plant response rating, Pigweed ([11]; 125 g ai/ha): 60; Plant response rating, Pigweed [11, 16]: 90; Plant response rating, Wheat ([12]; 125 g ai/ha): 40; Plant response rating, Wheat [12, 16]: 60; Plant response rating, Ragweed [13]: 30; Ragweed plant response rating [13]: 70; Plant response rating, Ragweed ([14]; 125 g ai/ha): 30; Plant response rating, Ragweed [14, 16]: 50; Plant response rating, Pigweed [15]: 70; Pigweed plant response rating [15]: 100 |
